From DBAASP
Values after ≈ are worked out from the molar mass of the structure shown.

How the values were obtained:
Test in all cases: ≥ marks a high value that may be exact or a test limit, other limits are often not marked, values filed in µg/mL are converted to µM
[1] = tested on: Acinetobacter baumannii NM124
[2] = tested on: Cutibacterium acnes ATCC 31766
[3] = tested on: Acinetobacter baumannii NM75
[4] = tested on: Cutibacterium acnes ATCC 50247
[5] = tested on: Cutibacterium acnes ATCC 18380
[6] = tested on: Acinetobacter baumannii NM109
[7] = tested on: Cutibacterium acnes ATCC 11828
[8] = tested on: Cutibacterium acnes ATCC 29903
[9] = tested on: Candida albicans ATCC 90028
[10] = tested on: Acinetobacter baumannii NM35
[11] = tested on: Cutibacterium acnes ATCC 33257
[12] = tested on: Cutibacterium acnes ATCC 15725
[13] = tested on: Acinetobacter baumannii NM8
[14] = tested on: Cutibacterium acnes ATCC 32548
[15] = tested on: Escherichia coli ATCC 25726
[16] = tested on: Staphylococcus aureus ATCC 25923
[17] = tested on: Salmonella enterica subsp. enterica serovar Typhimurium ATCC 700408
Escherichia coli BL21AI = tested on: Escherichia coli BL21AI
Escherichia coli D31 = tested on: Escherichia coli D31
[18] = tested on: Salmonella enterica subsp. enterica serovar Typhi S5
[19] = tested on: Klebsiella pneumoniae K6 ATCC 700603
[20] = tested on: Klebsiella pneumoniae 123132
Escherichia coli 45849 = tested on: Escherichia coli 45849
[21] = tested on: Agrobacterium tumefaciens ATCC 15955
[22] = tested on: Micrococcus luteus ATCC 10240
[23] = tested on: Escherichia coli ATCC 35218
[24] = tested on: Streptococcus pyogenes ATCC 19615
[25] = tested on: Bacillus cereus ATCC 11778
[26] = tested on: Micrococcus luteus ATCC 9341
[27] = tested on: Enterococcus faecalis ATCC 29212
[28] = tested on: Pseudomonas aeruginosa ATCC 9027
[29] = tested on: Salmonella enterica subsp. arizonae ATCC 13314
[30] = tested on: Staphylococcus epidermidis ATCC 12228
[31] = tested on: Escherichia coli ATCC 25922
Escherichia coli O157 = tested on: Escherichia coli O157
[32] = tested on: Proteus mirabilis ATCC 25933
[33] = tested on: Staphylococcus aureus NCTC 8325
[34] = tested on: Enterobacter cloacae HNTCC 53001
[35] = tested on: Staphylococcus aureus T7/20
[36] = tested on: Staphylococcus epidermidis RP62A
[37] = tested on: Pseudomonas aeruginosa ATCC 27853
[38] = tested on: Klebsiella pneumoniae KK3 9904
Escherichia coli K-12 = tested on: Escherichia coli K-12
[39] = tested on: Pseudomonas aeruginosa BNCC 125486
[40] = tested on: Pseudomonas aeruginosa PAO1
Escherichia coli = tested on: Escherichia coli
Bacillus subtilis 168 = tested on: Bacillus subtilis 168
Staphylococcus aureus = tested on: Staphylococcus aureus
[41] = tested on: Staphylococcus aureus BNCC 186335
[42] = tested on: Escherichia coli BNCC 133264
Listeria monocytogenes = tested on: Listeria monocytogenes
[43] = tested on: Staphylococcus aureus USA 300

Which results are given for `CC[C@H](C)[C@H](NC(=O)[C@@H](NC(=O)CN)C(C)C)C(=O)N[C@@H](CCCCN)C(=O)N[C@@H](CO)C(=O)N[C@H](C(=O)N[C@@H](CC(C)C)C(=O)N[C@@H](CCCCN)C(=O)NCC(=O)N[C@H](C(=O)N[C@@H](C)C(=O)N[C@@H](CCCCN)C(=O)N[C@H](C(=O)N[C@H](C(=O)N[C@@H](C)C(=O)N[C@@H](CC(C)C)C(=O)NCC(=O)N[C@@H](CCSC)C(=O)N[C@@H](CC(C)C)C(N)=O)C(C)C)[C@@H](C)O)C(C)C)C(C)C` [GVIKSVLKGVAKTVALGML]?
MIC [1]: 12.5 µM (≈ 23.5 µg/mL); MIC [2]: 6 µM (≈ 11.3 µg/mL); MIC [3]: 12.5 µM (≈ 23.5 µg/mL); MIC [4]: 6 µM (≈ 11.3 µg/mL); MIC [5]: ≥ 50 µM; MIC [6]: 12.5 µM (≈ 23.5 µg/mL); MIC [7]: 12.5 µM (≈ 23.5 µg/mL); MIC [8]: 25 µM (≈ 47.1 µg/mL); MIC [9]: ≥ 50 µM; MIC [10]: 6 µM (≈ 11.3 µg/mL); MIC [11]: 12.5 µM (≈ 23.5 µg/mL); MIC [12]: 12.5 µM (≈ 23.5 µg/mL); MIC [13]: 6 µM (≈ 11.3 µg/mL); MIC [14]: 12.5 µM (≈ 23.5 µg/mL); MIC [15]: 12.5 µM (≈ 23.5 µg/mL); MIC [16]: 12.5 µM (≈ 23.5 µg/mL)

With `CC[C@H](C)[C@H](NC(=O)[C@H](Cc1ccc(O)cc1)NC(=O)[C@@H](NC(=O)[C@@H]1CCCN1C(=O)[C@H](CCCN=C(N)N)NC(=O)[C@H](CC(N)=O)NC(=O)[C@H](CC(N)=O)NC(=O)[C@@H](N)CCCCN)C(C)C)C(=O)N1CCC[C@H]1C(=O)N[C@@H](CCCCN)C(=O)N1CCC[C@H]1C(=O)N[C@@H](CCCN=C(N)N)C(=O)N1CCC[C@H]1C(=O)N1CCC[C@H]1C(=O)N[C@@H](Cc1cnc[nH]1)C(=O)N1CCC[C@H]1C(=O)N[C@@H](CCCN=C(N)N)C(=O)N[C@@H](CC(C)C)C(N)=O` [KNNRPVYIPKPRPPHPRL] as the compound, how does the MIC [17] read?
The MIC was 0.162 µM (≈ 0.353 µg/mL).

And the MIC (Escherichia coli BL21AI)?
Its MIC is 1.27 µM (≈ 2.76 µg/mL).

And the MIC (Escherichia coli D31)?
Its MIC is 3.67 µM (≈ 8 µg/mL).

What about the MIC [18] of the same compound?
The MIC was 0.459 µM (≈ 1 µg/mL).

What about the MIC [19] of the same compound?
The MIC was 3.67 µM (≈ 8 µg/mL).

What about the MIC [20] of the same compound?
The MIC was 1.84 µM (≈ 4 µg/mL).

What about the MIC (Escherichia coli 45849) of the same compound?
The MIC was 0.115 µM (≈ 0.25 µg/mL).

And the MIC [21]?
Its MIC is 0.298 µM (≈ 0.65 µg/mL).

What about the MIC [22] of the same compound?
The MIC was 0.634 µM (≈ 1.38 µg/mL).

For `CC(C)C[C@H](NC(=O)[C@H](CC(C)C)NC(=O)[C@H](CCC(N)=O)NC(=O)[C@H](Cc1ccc(O)cc1)NC(=O)[C@H](CCCN=C(N)N)NC(=O)CNC(=O)[C@H](C)NC(=O)[C@H](C)NC(=O)[C@@H](NC(=O)[C@H](CO)NC(=O)[C@H](Cc1ccc(O)cc1)NC(=O)[C@@H](NC(=O)[C@H](CCCCN)NC(=O)[C@H](Cc1ccc(O)cc1)NC(=O)[C@H](CCCN=C(N)N)NC(=O)[C@@H]1CCCN1C(=O)[C@H](CC(C)C)NC(=O)[C@H](Cc1ccc(O)cc1)NC(=O)[C@@H](NC(=O)[C@@H](N)CCCCN)C(C)C)C(C)C)[C@@H](C)O)C(N)=O` [KVYLPRYKVYSTAAGRYQLL], which MIC [23] is on record?
Its MIC is ≥ 150 µM.

And the MIC [24]?
The MIC was ≥ 150 µM.

And the MIC [25]?
Its MIC is ≥ 150 µM.

What about the MIC [26] of the same compound?
The MIC was ≥ 150 µM.

What about the MIC [27] of the same compound?
Its MIC is > 150 µM.

What about the MIC [28] of the same compound?
Its MIC is > 150 µM.

What about the MIC [29] of the same compound?
The MIC was ≥ 150 µM.

And the MIC [30]?
Its MIC is > 150 µM.

What about the MIC [31] of the same compound?
The MIC was > 150 µM.

What about the MIC (Escherichia coli O157) of the same compound?
The MIC was ≥ 150 µM.

Which MIC [32] does the source give for `CC[C@H](C)[C@H](NC(=O)[C@H](CCCCN)NC(=O)[C@H](CO)NC(=O)[C@@H](NC(=O)[C@H](CC(C)C)NC(=O)[C@H](CO)NC(=O)[C@@H]1CCCN1C(=O)[C@H](CC(C)C)NC(=O)[C@H](C)NC(=O)[C@H](CO)NC(=O)[C@H](C)NC(=O)[C@H](CC(C)C)NC(=O)[C@H](C)NC(=O)CNC(=O)[C@@H](NC(=O)[C@@H](NC(=O)[C@H](CO)NC(=O)CNC(=O)[C@H](CC(C)C)NC(=O)[C@@H](N)Cc1ccccc1)[C@@H](C)CC)C(C)C)[C@@H](C)CC)C(=O)N[C@@H](CCCN=C(N)N)C(=O)N[C@@H](CC(N)=O)C(N)=O` [FLGSIVGALASALPSLISKIRN] here?
The MIC was ≥ 100 µM.

And the MIC [27]?
The MIC was 50 µM (≈ 111 µg/mL).

And the MIC [33]?
Its MIC is 25 µM (≈ 55.7 µg/mL).

What about the MIC [34] of the same compound?
The MIC was ≥ 50 µM.

What about the MIC [35] of the same compound?
The MIC was 25 µM (≈ 55.7 µg/mL).

And the MIC [36]?
Its MIC is 12.5 µM (≈ 27.8 µg/mL).

And the MIC [9]?
Its MIC is ≥ 50 µM.

And the MIC [31]?
Its MIC is 25 µM (≈ 55.7 µg/mL).

And the MIC [37]?
The MIC was 50 µM (≈ 111 µg/mL).

And the MIC [38]?
Its MIC is ≥ 100 µM.

`CC[C@H](C)[C@H](NC(=O)[C@H](CCCCN)NC(=O)[C@H](CCCN=C(N)N)NC(=O)[C@@H](NC(=O)[C@H](CC(C)C)NC(=O)[C@H](CCCCN)NC(=O)[C@H](CC(C)C)NC(=O)[C@@H](NC(=O)[C@H](CCCCN)NC(=O)CNC(=O)[C@H](Cc1ccccc1)NC(=O)[C@@H](N)Cc1ccccc1)C(C)C)[C@@H](C)CC)C(=O)N[C@@H](Cc1ccccc1)C(N)=O` [FFGKVLKLIRKIF] was tested. Which MIC (Escherichia coli K-12) did it give?
The MIC was ≥ 100 µM.

What about the MIC [39] of the same compound?
Its MIC is ≥ 79.5 µM.

What about the MIC [40] of the same compound?
Its MIC is > 100 µM.

And the MIC (Escherichia coli)?
Its MIC is > 79.5 µM.

And the MIC (Bacillus subtilis 168)?
The MIC was ≥ 100 µM.

And the MIC (Staphylococcus aureus)?
Its MIC is 39.8 µM (≈ 64 µg/mL).

What about the MIC [41] of the same compound?
Its MIC is ≥ 39.8 µM.

What about the MIC [42] of the same compound?
Its MIC is ≥ 79.5 µM.

And the MIC (Listeria monocytogenes)?
Its MIC is 4.97 µM (≈ 8 µg/mL).

And the MIC [43]?
The MIC was 3.1 µM (≈ 4.99 µg/mL).
